For 7 compounds, IC50 results are on record in patent US12016852B2, “Pyrrolidine glycosidase inhibitors” (Asceneuron SA, priority 2018, dated 2024).

Each structure is given as a SMILES string.

The assay addresses T1, Human O-GlcNAcase (His-Tagged hOGA) (Homo sapiens, UniProt O60502).
T1 sequence (O60502 1-916): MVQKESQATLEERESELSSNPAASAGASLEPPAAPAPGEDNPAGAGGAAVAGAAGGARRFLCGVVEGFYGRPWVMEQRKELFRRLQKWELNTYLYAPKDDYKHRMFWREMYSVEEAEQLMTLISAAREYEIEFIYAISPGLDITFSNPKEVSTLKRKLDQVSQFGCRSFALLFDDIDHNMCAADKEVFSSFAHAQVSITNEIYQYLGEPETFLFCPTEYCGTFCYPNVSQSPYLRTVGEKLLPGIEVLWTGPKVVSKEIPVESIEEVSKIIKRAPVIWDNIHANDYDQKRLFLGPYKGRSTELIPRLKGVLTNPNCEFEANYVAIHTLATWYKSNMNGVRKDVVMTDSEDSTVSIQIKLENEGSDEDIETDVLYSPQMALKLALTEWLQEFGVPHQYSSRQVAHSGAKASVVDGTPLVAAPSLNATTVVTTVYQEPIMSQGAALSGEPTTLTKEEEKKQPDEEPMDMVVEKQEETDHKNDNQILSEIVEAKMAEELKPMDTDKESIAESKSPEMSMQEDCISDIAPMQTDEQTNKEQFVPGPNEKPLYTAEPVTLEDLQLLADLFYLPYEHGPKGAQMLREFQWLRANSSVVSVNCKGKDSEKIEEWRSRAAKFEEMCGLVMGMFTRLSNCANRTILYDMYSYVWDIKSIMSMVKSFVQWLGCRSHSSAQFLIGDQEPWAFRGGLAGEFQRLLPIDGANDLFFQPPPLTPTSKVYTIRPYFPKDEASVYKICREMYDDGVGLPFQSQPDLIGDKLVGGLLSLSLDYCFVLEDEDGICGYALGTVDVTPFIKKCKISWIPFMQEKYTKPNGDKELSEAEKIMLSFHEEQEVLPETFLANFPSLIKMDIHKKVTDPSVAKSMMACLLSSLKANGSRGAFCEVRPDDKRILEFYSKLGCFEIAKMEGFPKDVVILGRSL
The experiment in a line: Human O-GlcNAcase enzyme inhibition assay. It counts as biochemical. Conditions: 20 nM His-Tagged hOGA, 10 μM FL-GlcNAc, McIlvaine's Buffer pH 6.5, 60 min at room temperature, fluorescence; read-out: OGA IC50. The procedure, abridged:
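IC50 derived from sigmoidal fits of fluorescence (ex 485, em 520 nm), normalized between 0.5% DMSO and 3 uM Thiamet. Reaction: inhibitor, 20 nM His-hOGA and 10 μM FL-GlcNAc, pH 6.5 McIlvaine's buffer, room temperature for 60 min, then glycine stop buffer pH 10.75.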

Consider `c1ncn(-c2ccc(CN3CCCC3c3ccc4c(c3)OCCO4)cc2)n1` (single isomer, unassigned) [Example 48, (S)-1-(4-((2-(2,3-dihydrobenzo[b] [1,4]dioxin-6-yl)pyrrolidin-1-yl)methyl) Phenyl)-1H-1,2,4-triazole or (R)-1-(4-((2-(2,3-dihydrobenzo[b] [1,4]dioxin-6-yl)pyrrolidin-1-yl)methyl)phenyl)-1 H-1,2,4-triazole], for which the IC50 is 50 to 200 nM.
In the case of `CS(=O)(=O)N1CCN(c2ccc(CN3CCCC3c3ccc4c(c3)OCCO4)cc2)CC1` (single isomer, unassigned) [Example 53, (S)-1-(4-((2-(2,3-dihydrobenzo[b] [1,4]dioxin-6-yl)pyrrolidin-1-yl)methyl)phenyl)-4-(methylsulfonyl)piperazine or (R)-1-(4-((2-(2,3-dihydrobenzo[b] [1,4]dioxin-6-yl)pyrrolidin-1-yl)methyl)phenyl)-4-(methylsulfonyl)piperazine], the concentration for half-maximal inhibition (IC50) fell in the range of 50 to 200 nM.
In the case of `O=C1CSCCN1c1ccc(CN2CCCC2c2ccc3c(c2)OCCO3)cc1` (single isomer, unassigned) [Example 73], the half-inhibitory concentration (IC50) lay within 200 to 1000 nM.
In the case of `O=C1CSCCN1c1ccc(CN2CCCC2c2ccc3c(c2)OCCO3)cc1` (single isomer, unassigned) [Example 74] it was 1000 to 10000 nM; in that of `c1cnc(-c2ccc(CN3CCCC3c3ccc4c(c3)OCCO4)cc2)nc1` (single isomer, unassigned) [Example 75, (S)-2-(4-((2-(2,3-dihydrobenzo[b] [1,4]dioxin-6-yl)pyrrolidin-1-yl)methyl)phenyl)pyrimidine or (R)-2-(4-((2-(2,3-dihydrobenzo[b] [1,4]dioxin-6-yl)pyrrolidin-1-yl)methyl)phenyl)pyrimidine], 50 to 200 nM.
On to `Cn1cc(-c2ccc(CN3CCCC3c3ccc4c(c3)OCCO4)nc2)cn1` (single isomer, unassigned) [Example 145], for which the IC50 lay in the range of 200 to 1000 nM.
As for `CS(=O)(=O)N1CCN(c2ccc(CN3CCCC3c3ccc4c(c3)OCCO4)cc2)CC1` (single isomer, unassigned) [Example 148], the IC50 lay in the range of 1000 to 10000 nM.

One may read the IC50 as the concentration that inhibits the measured activity by half.
